Key:
[1] = test system: differentiated primary iWAT cells; assay: Cellular oxygen consumption rate (Seahorse XF24), differentiated primary iWAT adipocytes; type: cell-based, mouse; settings: 50 μM, in presence of oligomycin (1 μM)
Experimental: C2C12, U2O5, and 293A cells were cultured in DMEM with 10% FBS and pen/strep. Primary inguinal (iWAT) and brown (BAT) adipocytes were obtained as follows. The stromal-vascular fraction of inguinal (iWAT) pad from 4-12 week old male mice was dissected, minced, and digested for 45 min. at 37° C. in PBS containing 10 mM CaCl2, 2.4 U/ml dispase II (Roche), and 1.5 U/ml collagenase D (Roche). The stromal-vascular fraction of brown fat (BAT) pads from newborn (P1-P14) pups was dissected, minced, and digested for 45 min at 37° C. in PBS containing 1.3 mM CaCl2, 120 mM NaCl, 5 mM KCl, 5 mM glucose, 100 mM HEPES, 4% BSA, and 1.5 mg/ml collagenase B (Roche). Digested tissue was diluted with adipocyte culture media (DMEM/F-12, GlutaMAX™ supplement, Life Technologies, with 10% FBS and pen/strep) and centrifuged (600×g for 10 min.). The pellet was resuspended in 10 ml adipocyte culture media, strained through a 40 μm filter, and plated. Differentiation was induced by application of an adipogenic cocktail containing 5 μg/ml insulin (Sigma), 5 μM dexamethasone (Sigma), 250 μM isobutylmethylxanthine (Sigma), and 1 μM rosiglitazone (Cayman) for 2 days. Two days after induction, cells were maintained in adipocyte culture media containing 5 μg/ml insulin and 1 μM rosiglitazone.
(§1) Cellular oxygen consumption rates were determined using an XF24 Extracellular Flux Analyzer (Seahorse Biosciences). Oligomycin was purchased from EMD Millipore, and FCCP and rotenone were purchased from Sigma. C2C12 or U2OS cells were seeded at 30,000 or 50,000 cells/well, respectively in an XF24 cell culture microplate (V7-PS, Seahorse Bioscience) and analyzed the following day. Primary iWAT or BAT adipocytes were seeded at 15,000 cells/well, differentiation was induced the following day as described, and the cells were analyzed on day 5. On the day of analysis, the cells were washed once with Seahorse respiration buffer (8.3 g/1 DMEM, 1.8 g/l NaCl, 1 mM pyruvate, 20 mM glucose, pen/strep), placed in 0.5 ml Seahorse respiration buffer, and incubated in a CO2-free incubator for 1 hr. Port injection solutions were prepared as follows (final concentrations in assay in parentheses): 10 μM oligomycin (1 μM final), […] amino acid (50 μM final), 2 μM FCCP (0.2 μM final), and 30 μM rotenone (3 μM final). The Seahorse program was run as follows: basal measurement, 3 cycles; inject port A (oligomycin), 3 cycles; inject port B (compounds), 8 cycles; inject port C (FCCP), 3 cycles; inject port D (rotenone), 3 cycles. Each cycle consisted of mix 4 min, wait 0 min, and measure 2 min. For data expressed as a percentage of oligomycin-treated basal, the respiration at cycle 6 was normalized to 100%, and the maximum respiration at any time point between cycles 7 and 15 inclusive was used.

[2] = test system: primary inguinal fat cells, primary BAT cells, C2C12 cells, and U2OS cells; assay: Uncoupled respiration cellular assays (variety of cell types); type: cell-based; settings: N-acyl amino acids at 10-100 uM
Experimental: as §1

[3] = test system: Diet induced obese (DIO) mice; assay: Chronic daily i.p. administration of N-acyl amino acids to DIO mice (body weight, food intake, body composition, GTT); type: in vivo, mouse; settings: chronic treatment, C18:1-Phe 30 or 50 mg/kg/day, C20:4-Gly 15 mg/kg/day, i.p.
Experimental: (§2) Animal experiments were performed according to procedures approved by the Beth Israel Deaconess Medical Center IACUC. Mice were maintained in 12 h light-dark cycles at 22° C. and fed a standard irradiated rodent chow diet. All experiments on wild-type mice were performed with male C57BL/6 mice purchased from Jackson Laboratories, except for the AAV experiments, which were performed with male C57BL/6 mice from Charles River. UCP1-KO (stock #017476) and 16-20 week DIO mice (stock #380050) were obtained from Jackson Laboratories. For AAV injection experiments, mice were gently warmed using a 250 W clear infrared heat lamp, immobilized, and injected via tail vein with 10^10 virus/mouse (diluted in saline) in a total volume of 100 μl/mouse. Where indicated, mice were placed on high-fat diet (60% fat, Research Diets). For cold exposure experiments, mice were group housed and placed at 4° C. for the indicated times. For the preparation of C18:1-Phe for in vivo injections, compounds were dissolved in 18:1:1 v/v/v saline:Kolliphor® EL (Sigma Aldrich):DMSO and sonicated until homogeneous. Mice were administered compounds at 5 μl/g body weight at the indicated doses. For all injection experiments, mice were mock injected with saline daily for 3 days prior to the start of the experiments. For glucose tolerance tests (GTTs), mice received their final dose of compound the day prior to the assay and were then fasted overnight. Glucose was administered at 1.5 g/kg.
(§3) Energy expenditure, O2 consumption, CO2 production, respiratory exchange ratio, total locomotor activity, and food intake measurements were made with a 16-cage Columbus Instruments Oxymax Comprehensive Lab Animal Monitoring System (CLAMS) at ambient room temperature (21-23° C.). Mice were acclimated for one day in metabolic cages prior to data collection. Whole-body composition was assessed with an EchoMRI™ 3-in-1 on conscious mice.

[4] = test system: Diet induced obese (DIO) mice; assay: Indirect calorimetry (CLAMS) of high fat diet/DIO mice treated with N-acyl amino acids; type: in vivo, mouse; settings: daily i.p.: C18:1-Leu 25, C18:1-Phe 30, C20:4-Gly 15 mg/kg/day
Experimental: as §2, §3

[5] = Plasma AST, ALT and cytokine array after chronic treatment of DIO mice; type: in vivo, mouse; settings: 9 days chronic treatment, versus vehicle
Experimental: FIG. 14 includes 11 panels, identified as panels A, B, C, D, E, F, G, H, I, J, and K, which show the effects of chronic C20:4-Gly administration to mice. Panels A-F show the change in body weight (Panel A), daily and cumulative food intake (Panels B and C), and total body weight at day 7 (Panel D), VO2 (Panel E), and movement (Panel F) of 14 week DIO mice treated daily with vehicle or C20:4-Gly (20 mg/kg/day, i.p.). For Panels E and F, measurements were recorded for 2 days following 7 days chronic treatment with vehicle or C20:4-Gly (20 mg/kg/day, i.p.); during this time daily administration of the indicated compounds continued. […] Panels G-J show plasma AST (Panel G), ALT (Panel H), and plasma cytokine array profiling (Panels I and J) following 9 days chronic treatment with vehicle or C20:4-Gly (20 mg/kg/day, i.p.). For Panels G-J, plasma was collected 24 hr following the last dose of vehicle or C20:4-Gly. For Panels A-H, n=8/group, mean±SEM, *p<0.05, **p<0.01. For Panels I and J, plasma from 4 mice/group were pooled for each array.

C2C12 cells = assay: Mitochondrial membrane potential by TMRM fluorescence; type: cell-based, mouse; settings: 20 min
Experimental: Mitochondrial membrane potential was measured using tetramethylrhodamine methyl ester (TMRM, Life Technologies) fluorescence. C2C12 cells were plated in 6-well plates and grown to 80-90% confluence. Cells were then washed once with PBS and switched into Seahorse respiration buffer with the indicated compounds at the indicated concentrations: TMRM (100 nM), oligomycin (1 μM), FCCP (0.4 μM), and C18:1-Phe (10 or 50 μM). After 20 min. incubation at 37° C., the media was aspirated, cells were washed once with PBS, and trypsinized. Trypsinized cells were directly resuspended in PBS (total volume 300 μl), stored on ice, and analyzed on a FACSCanto™ II (BD Biosciences) with 20,000 events per sample.

Question: Which “maximal OCR versus DMSO at the same time point” value [1] does the source give for `CCCCC/C=C\C/C=C\C/C=C\C/C=C\CCCC(=O)NCC(=O)O` [C20:4-Gly, N-arachidonoyl glycine] here?
Answer: 285%

Question: And the “maximal OCR versus oligomycin-treated basal respiration” value [1]?
Answer: 295%

Question: And the “uncoupled respiration in cells” value [2]?
Answer: increased uncoupled respiration

Question: And the food intake [3]?
Answer: reduced food intake

Question: And the VO2 [4]?
Answer: significantly augmented

Question: And the movement [4]?
Answer: no effects

Question: What about the “plasma ALT” value [5] of the same compound?
Answer: no sigificant elevations

Question: And the “plasma AST” value [5]?
Answer: no sigificant elevations

Question: And the plasma cytokines [5]?
Answer: no sigificant elevations

Question: With `N#CC(C#N)=NNc1ccc(OC(F)(F)F)cc1` [FCCP] as the compound, how does the “decrease of TMRM fluorescence” value (C2C12 cells; co-treatment with oligomycin 1 μM, C18:1-Phe 50 μM, FCCP 0.4 μM) read?
Answer: ~70%

Question: Which mitochondrial membrane potential (C2C12 cells; TMRM fluorescence) does the source give for `CC[C@H]1/C=C/C=C/C[C@@H](C)[C@H](O)[C@@](C)(O)C(=O)[C@@H](C)[C@H](O)[C@@H](C)C(=O)[C@@H](C)[C@H](O)[C@@H](C)/C=C/C(=O)O[C@@H]2[C@H](C)[C@H](CC1)O[C@]1(CC[C@H](C)[C@H](C[C@@H](C)O)O1)[C@H]2C` [oligomycin] here?
Answer: increased the membrane potential

Reference: patent US12194080B2, “Methods for identification, assessment, prevention, and treatment of metabolic disorders using PM20D1 and N-lipidated amino acids” (Dana-Farber Cancer Institute, Inc., priority 2015, dated 2025)
